Structures can show the parent of a compound that is named as a salt. Where two headings read alike, the source gives them in different places.
Assays:
Format in all cases: biochemical
[1] = target: T1, recombinant human MAO-B (monoamine oxidase-B) (Homo sapiens, UniProt P27338); test: Activity evaluation on recombinant human MAO-B (Amplex Red/HRP-coupled assay, 1 mM benzylamine substrate); conditions: read-out: Inhibitory Activity (IC50, nM) MAO-B
T1 construct: purchased Sigma-Aldrich
T1 sequence (P27338 1-520): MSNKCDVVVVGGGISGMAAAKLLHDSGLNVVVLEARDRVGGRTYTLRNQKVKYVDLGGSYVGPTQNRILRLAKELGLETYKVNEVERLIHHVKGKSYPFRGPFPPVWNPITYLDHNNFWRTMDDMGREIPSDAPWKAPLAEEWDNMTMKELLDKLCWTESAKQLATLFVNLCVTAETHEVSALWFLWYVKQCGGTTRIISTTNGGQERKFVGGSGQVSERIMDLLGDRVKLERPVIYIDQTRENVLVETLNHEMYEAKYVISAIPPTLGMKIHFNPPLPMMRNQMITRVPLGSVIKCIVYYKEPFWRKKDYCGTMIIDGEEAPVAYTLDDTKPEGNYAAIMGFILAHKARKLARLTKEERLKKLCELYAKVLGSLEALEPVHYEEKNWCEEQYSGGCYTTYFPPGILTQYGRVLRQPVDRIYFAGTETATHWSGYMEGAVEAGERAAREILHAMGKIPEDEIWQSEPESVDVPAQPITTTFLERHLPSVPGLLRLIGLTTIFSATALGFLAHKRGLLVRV
Method in brief: (§1)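 Enzyme was preincubated with compounds (8-point 1:3 series, final DMSO <1%) 30 min at 37 °C in 50 mM sodium phosphate pH 7.4, then given 200 uM Amplex Red and 1 U/mL HRP with substrate. H2O2-derived resorufin fluorescence (ex 544/em 590 nm) was followed over 1–2 h; IC50 came from 4-parameter logistic fits of signal-rate inhibition versus DMSO control.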

recombinant human VAP-1 = target: T2, recombinant human VAP-1 (Homo sapiens, UniProt Q16853); test: Activity evaluation on recombinant human VAP-1 (Amplex Red/HRP-coupled hydrogen peroxide assay, benzylamine substrate); conditions: read-out: Inhibitory Activity (IC50, nM) human VAP-1
T2 construct: purchased R&D systems
T2 sequence (Q16853 1-763): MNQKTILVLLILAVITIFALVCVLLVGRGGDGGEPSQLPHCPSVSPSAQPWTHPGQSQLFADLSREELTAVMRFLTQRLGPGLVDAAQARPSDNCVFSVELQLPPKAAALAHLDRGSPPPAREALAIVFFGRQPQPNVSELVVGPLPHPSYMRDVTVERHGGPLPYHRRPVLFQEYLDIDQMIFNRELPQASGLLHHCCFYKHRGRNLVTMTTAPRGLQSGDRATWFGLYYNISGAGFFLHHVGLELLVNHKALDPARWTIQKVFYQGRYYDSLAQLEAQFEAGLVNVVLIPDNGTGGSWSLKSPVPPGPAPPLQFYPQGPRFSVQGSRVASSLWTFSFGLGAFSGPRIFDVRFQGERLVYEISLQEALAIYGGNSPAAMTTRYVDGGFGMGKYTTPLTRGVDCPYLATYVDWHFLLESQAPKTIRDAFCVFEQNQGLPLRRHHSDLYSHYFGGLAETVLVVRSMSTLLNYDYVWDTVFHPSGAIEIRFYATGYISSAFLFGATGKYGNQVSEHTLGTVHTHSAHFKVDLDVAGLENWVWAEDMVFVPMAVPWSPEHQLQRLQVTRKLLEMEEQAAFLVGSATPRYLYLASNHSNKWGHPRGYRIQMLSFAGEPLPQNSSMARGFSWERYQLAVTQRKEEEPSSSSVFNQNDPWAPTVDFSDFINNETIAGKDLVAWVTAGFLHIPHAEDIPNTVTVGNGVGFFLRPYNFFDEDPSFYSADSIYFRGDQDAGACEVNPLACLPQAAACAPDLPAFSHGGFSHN
Method in brief: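 Recombinant human VAP-1 in 50 mM sodium phosphate pH 7.4 preincubated 30 min at 37 °C with compound (8-point 1:3 series, <1% DMSO), then 1 mM benzylamine, 200 uM Amplex Red, 1 U/mL HRP added. H2O2-derived resorufin fluorescence (ex 544/em 590) followed 1–2 h; IC50 from four-parameter fit of rate inhibition.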

[2] = target: T3, recombinant human MAO-A (monoamine oxidase-A) (Homo sapiens, UniProt P21397); test: Activity evaluation on recombinant human MAO-A (Amplex Red/HRP-coupled assay, 0.5 mM tyramine substrate); conditions: read-out: Inhibitory Activity (IC50, nM) MAO-A
T3 construct: purchased Sigma-Aldrich
T3 sequence (P21397 1-527): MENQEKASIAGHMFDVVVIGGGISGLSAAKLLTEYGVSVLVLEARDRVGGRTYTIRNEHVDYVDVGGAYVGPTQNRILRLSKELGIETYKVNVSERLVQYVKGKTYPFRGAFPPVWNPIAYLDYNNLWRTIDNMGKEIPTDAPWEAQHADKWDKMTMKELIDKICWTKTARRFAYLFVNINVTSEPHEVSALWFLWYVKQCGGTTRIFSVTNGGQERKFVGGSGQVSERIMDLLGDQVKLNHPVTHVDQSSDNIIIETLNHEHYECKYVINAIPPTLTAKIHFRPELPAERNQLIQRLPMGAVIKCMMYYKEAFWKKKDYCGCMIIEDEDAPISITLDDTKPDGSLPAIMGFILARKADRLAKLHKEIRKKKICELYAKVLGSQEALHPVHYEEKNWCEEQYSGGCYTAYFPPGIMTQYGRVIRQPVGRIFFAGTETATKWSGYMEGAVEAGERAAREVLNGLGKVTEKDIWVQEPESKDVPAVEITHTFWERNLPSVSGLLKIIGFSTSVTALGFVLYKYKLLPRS
Method in brief: as §1

[3] = target: T4, recombinant human DAO (diamine oxidase) (Homo sapiens, UniProt P19801); test: Activity evaluation on recombinant human DAO (Amplex Red/HRP-coupled assay, 1 mM putrescine substrate); conditions: read-out: Inhibitory Activity (IC50, nM) DAO
T4 construct: purchased R&D systems
T4 sequence (P19801 20-751): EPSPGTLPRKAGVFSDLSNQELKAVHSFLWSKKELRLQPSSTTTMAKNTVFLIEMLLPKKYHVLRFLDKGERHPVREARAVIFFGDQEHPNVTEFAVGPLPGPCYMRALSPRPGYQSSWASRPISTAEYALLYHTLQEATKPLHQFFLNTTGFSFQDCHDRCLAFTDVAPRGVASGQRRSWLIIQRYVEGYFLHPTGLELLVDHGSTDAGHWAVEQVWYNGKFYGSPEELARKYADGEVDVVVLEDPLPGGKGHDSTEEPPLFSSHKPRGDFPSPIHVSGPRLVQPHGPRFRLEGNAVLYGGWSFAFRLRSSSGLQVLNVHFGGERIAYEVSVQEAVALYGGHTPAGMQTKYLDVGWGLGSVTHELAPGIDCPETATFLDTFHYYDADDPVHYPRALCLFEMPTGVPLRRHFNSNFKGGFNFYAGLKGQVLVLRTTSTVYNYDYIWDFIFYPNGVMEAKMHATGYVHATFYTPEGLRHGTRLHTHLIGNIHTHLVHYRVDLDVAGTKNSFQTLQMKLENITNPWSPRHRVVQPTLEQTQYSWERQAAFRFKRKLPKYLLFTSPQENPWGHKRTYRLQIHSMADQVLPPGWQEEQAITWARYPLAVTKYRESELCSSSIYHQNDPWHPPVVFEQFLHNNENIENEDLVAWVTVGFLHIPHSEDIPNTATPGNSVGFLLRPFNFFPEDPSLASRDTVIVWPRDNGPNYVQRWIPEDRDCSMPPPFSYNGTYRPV
Method in brief: as §1

[4] = recombinant human VAP-1, benzylamine substrate
[5] = recombinant human VAP-1, 30 min preincubation at 37° C., 1 mM benzylamine

Row | Compound | IC50 ([1]; 1 mM benzylamine substrate) | IC50 (recombinant human VAP-1; [4]) | IC50 ([2]; 0.5 mM tyramine substrate) | IC50 ([3]; 1 mM putrescine substrate) | IC50 ([1]; 1 mM benzylamine) | IC50 (recombinant human VAP-1; [5]) | IC50 ([2]; 0.5 mM tyramine) | IC50 ([3]; 1 mM putrescine)
1 | Cc1cc(-c2cnn(C(C)C)c2)cnc1-n1cnn(CC(CN)=C(F)F)c1=O [Example 252, 2-[2-(aminomethyl)-3,3-difluoro-allyl]-4-[5-(1-isopropylpyrazol-4-yl)-3-methyl-2-pyridyl]-1,2,4-triazol-3-one Trifluoroacetate] | 35000 nM | 1 nM | > 100000 nM | 17000 nM | – | – | – | –
2 | NCC(Cn1ncn(Cc2cc(-c3cnn(C(F)F)c3)cs2)c1=O)=C(F)F [Example 194, 2-[2-(aminomethyl)-3,3-difluoro-allyl]-4-[[4-[1-(difluoromethyl)pyrazol-4-yl]-2-thienyl]methyl]-1,2,4-triazol-3-one Trifluoroacetate] | 9200 nM | 2.9 nM | > 100000 nM | 64000 nM | – | – | – | –
3 | CN1Cc2cc(-c3ccc(Cn4cnn(CC(CN)=C(F)F)c4=O)s3)ccc2NC1=O [Example 182, 6-[5-[[1-[2-(aminomethyl)-3,3-difluoro-allyl]-5-oxo-1,2,4-triazol-4-yl]methyl]-2-thienyl]-3-methyl-1,4-dihydroquinazolin-2-one Trifluoroacetate] | > 100000 nM | 0.2 nM | > 100000 nM | > 100000 nM | – | – | – | –
4 | NCC(Cn1ncn(-c2ccc(-c3ccc4c(c3)OCO4)cc2F)c1=O)=C(F)F [Example 35, 2-[2-(aminomethyl)-3,3-difluoro-allyl]-4-[4-(1,3-benzodioxol-5-yl)-2-fluoro-phenyl]-1,2,4-triazol-3-one Trifluoroacetate] | – | – | – | – | 33 nM | 0.3 nM | > 100000 nM | 540 nM
5 | Cc1c(-c2ccc3c(c2)CCC(=O)N3C)cccc1-n1cnn(CC(CN)=C(F)F)c1=O [Example 259, 6-[3-[1-[2-(aminomethyl)-3,3-difluoro-allyl]-5-oxo-1,2,4-triazol-4-yl]-2-methyl-phenyl]-1-methyl-3,4-dihydroquinolin-2-one Trifluoroacetate] | > 100000 nM | 1.3 nM | > 100000 nM | > 100000 nM | – | – | – | –
6 | NCC(Cn1ncn(-c2ccc(-c3ccc4c(c3)OCO4)c(F)c2)c1=O)=C(F)F [Example 28, 2-[2-(aminomethyl)-3,3-difluoro-allyl]-4-[4-(1,3-benzodioxol-5-yl)-3-fluoro-phenyl]-1,2,4-triazol-3-one Trifluoroacetate] | – | – | – | – | 85 nM | 1.2 nM | > 100000 nM | 1600 nM
7 | Cc1cc(-c2ccc(-n3cnn(CC(CN)=C(F)F)c3=O)cn2)cc2c1NC(=O)CC2 [Example 43, 6-[5-[1-[2-(aminomethyl)-3,3-difluoro-allyl]-5-oxo-1,2,4-triazol-4-yl]-2-pyridyl]-8-methyl-3,4-dihydro-1H-quinolin-2-one Trifluoroacetate] | – | – | – | – | 100 nM | 0.2 nM | > 100000 nM | 22 nM
8 | CN1C(=O)CCc2cc(-c3ccc4cc(Cn5cnn(CC(CN)=C(F)F)c5=O)sc4c3)ccc21 [Example 203, 6-[2-[[1-[2-(aminomethyl)-3,3-difluoro-allyl]-5-oxo-1,2,4-triazol-4-yl]methyl]benzothiophen-6-yl]-1-methyl-3,4-dihydroquinolin-2-one Trifluoroacetate] | 780 nM | 1.5 nM | > 100000 nM | 4000 nM | – | – | – | –
9 | NCC(Cn1ncn(-c2ccc(-c3ccc(C(F)(F)F)nc3)cc2F)c1=O)=C(F)F [Example 33, 2-[2-(aminomethyl)-3,3-difluoro-allyl]-4-[2-fluoro-4-[6-(trifluoromethyl)-3-pyridyl]phenyl]-1,2,4-triazol-3-one Trifluoroacetate] | – | – | – | – | 190 nM | 0.3 nM | 11000 nM | 17 nM
10 | Cc1ccc(Br)nc1-n1cnn(CC(CN)=C(F)F)c1=O [Example 15, 2-[2-(aminomethyl)-3,3-difluoro-allyl]-4-(6-bromo-3-methyl-2-pyridyl)-1,2,4-triazol-3-one Trifluoroacetate] | – | – | – | – | > 100000 nM | 3 nM | > 100000 nM | > 100000 nM
11 | NCC(Cn1ncn(Cc2ccc(C#Cc3ccc4c(c3)NCCO4)s2)c1=O)=C(F)F [Example 164, 2-[2-(aminomethyl)-3,3-difluoro-allyl]-4-[[5-[2-(3,4-dihydro-2H-1,4-benzoxazin-6-yl)ethynyl]-2-thienyl]methyl]-1,2,4-triazol-3-one Ditrifluoroacetate] | – | – | – | – | 34000 nM | 2.5 nM | 4000 nM | > 10000 nM
12 | NCC(Cn1ncn(Cc2ccc(-c3ccc4c(c3)COC(=O)N4)s2)c1=O)=C(F)F [Example 143, 6-[5-[[1-[2-(aminomethyl)-3,3-difluoro-allyl]-5-oxo-1,2,4-triazol-4-yl]methyl]-2-thienyl]-1,4-dihydro-3,1-benzoxazin-2-one Trifluoroacetate] | – | – | – | – | 6400 nM | 0.2 nM | > 100000 nM | > 10000 nM
